Data reported in patent US20260217767A1, “NOVEL A4B7 THIOETHER PEPTIDE DIMER ANTAGONISTS” (Protagonist Therapeutics, Inc., priority 2014, published 2026).
*1 amine or outer side, *2 acyl side, *3 side chain or, on linkers, in order; H or OH if unused. Where a SMILES comes first, the peptide text is derived from it. Bridges are numbered along the chain shown (N, C = ends). Roman numbers before positions name the chains, in order. [ ]: non-standard residue; d: D form. Bip = N[C@@H](Cc1ccc(-c2ccccc2)cc1)C(=O)O; 1Nal = N[C@@H](Cc1cccc2ccccc12)C(=O)O; Diglycolyl = O=C(COCC(=O)[*:2])[*:1]; NMeR = CN[C@@H](CCCNC(=N)N)C(=O)O; β3hE = N[C@@H](CCC(=O)O)CC(=O)O; X1 = O=C(c1ccccc1C[*:2])[*:1]; Pen = CC(C)(S)[C@H](N)C(=O)O

Each compound was assayed against T1, RPMI 8866 cells (Homo sapiens, UniProt P13612+P26010) (assay: α4β7-MAdCAM Cell Adhesion Assay). Details: thioether monomer peptides, Table 6; read-out: Cell-Adhesion A4B7.
T1 sequence (P13612 34-1032): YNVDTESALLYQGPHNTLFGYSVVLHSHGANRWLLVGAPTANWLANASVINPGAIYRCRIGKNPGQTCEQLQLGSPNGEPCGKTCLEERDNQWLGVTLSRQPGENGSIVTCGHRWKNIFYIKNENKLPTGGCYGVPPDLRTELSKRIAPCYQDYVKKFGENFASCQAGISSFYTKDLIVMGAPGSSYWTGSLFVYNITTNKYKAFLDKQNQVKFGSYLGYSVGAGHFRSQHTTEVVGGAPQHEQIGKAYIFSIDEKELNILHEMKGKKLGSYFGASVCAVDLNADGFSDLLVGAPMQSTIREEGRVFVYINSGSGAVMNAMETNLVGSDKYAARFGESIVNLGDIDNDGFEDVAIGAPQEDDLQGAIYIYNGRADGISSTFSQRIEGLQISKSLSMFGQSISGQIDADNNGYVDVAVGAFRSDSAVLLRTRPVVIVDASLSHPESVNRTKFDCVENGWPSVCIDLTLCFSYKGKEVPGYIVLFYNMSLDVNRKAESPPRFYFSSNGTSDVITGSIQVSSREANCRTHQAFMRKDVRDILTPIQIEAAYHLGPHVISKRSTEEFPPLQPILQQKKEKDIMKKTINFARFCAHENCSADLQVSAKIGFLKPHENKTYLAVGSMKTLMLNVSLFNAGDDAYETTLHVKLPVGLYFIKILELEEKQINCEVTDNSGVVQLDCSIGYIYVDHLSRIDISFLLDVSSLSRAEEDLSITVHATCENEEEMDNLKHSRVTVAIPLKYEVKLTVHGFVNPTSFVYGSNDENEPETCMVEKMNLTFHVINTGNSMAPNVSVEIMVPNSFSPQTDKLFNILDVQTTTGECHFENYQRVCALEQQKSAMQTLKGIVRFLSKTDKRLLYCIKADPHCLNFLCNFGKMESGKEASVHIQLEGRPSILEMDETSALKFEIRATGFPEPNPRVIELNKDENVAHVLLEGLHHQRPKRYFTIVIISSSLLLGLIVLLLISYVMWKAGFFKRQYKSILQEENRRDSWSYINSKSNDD
T1 sequence (P26010 20-798): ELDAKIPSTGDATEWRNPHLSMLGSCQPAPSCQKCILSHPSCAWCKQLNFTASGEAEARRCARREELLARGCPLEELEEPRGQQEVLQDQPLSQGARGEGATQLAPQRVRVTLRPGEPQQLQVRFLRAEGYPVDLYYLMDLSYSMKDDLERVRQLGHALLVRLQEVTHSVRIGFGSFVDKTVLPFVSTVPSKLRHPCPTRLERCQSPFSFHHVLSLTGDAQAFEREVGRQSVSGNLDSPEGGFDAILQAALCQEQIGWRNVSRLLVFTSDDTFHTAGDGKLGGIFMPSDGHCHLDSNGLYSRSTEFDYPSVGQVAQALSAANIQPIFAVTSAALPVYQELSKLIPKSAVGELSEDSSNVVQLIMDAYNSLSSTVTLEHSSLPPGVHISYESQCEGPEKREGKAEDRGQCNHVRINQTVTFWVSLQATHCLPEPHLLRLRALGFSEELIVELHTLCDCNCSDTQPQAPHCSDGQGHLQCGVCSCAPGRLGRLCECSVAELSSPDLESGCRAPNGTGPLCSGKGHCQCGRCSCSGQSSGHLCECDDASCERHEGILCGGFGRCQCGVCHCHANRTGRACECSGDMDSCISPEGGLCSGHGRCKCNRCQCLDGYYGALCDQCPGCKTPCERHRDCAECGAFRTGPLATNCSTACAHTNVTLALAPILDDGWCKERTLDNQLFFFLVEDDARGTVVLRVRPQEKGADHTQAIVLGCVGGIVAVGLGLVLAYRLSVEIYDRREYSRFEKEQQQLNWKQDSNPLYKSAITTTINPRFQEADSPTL
Type: cell-based
In short: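 RPMI 8866 cells (200,000/well) in DMEM with 1 mM MnCl2 and 0.1% BSA were allowed to adhere 30-45 min at 37° C to plates coated with rh MAdCAM-1/Fc (200 ng/well) in presence of serially diluted peptide. After washing, bound cells quantified by MTT, absorbance 570 nm, cell-free background subtracted.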
For `CC(=O)NCCCC[C@@H](NC(=O)[C@H](CCC(=O)O)NC(=O)[C@H](Cc1cccc2ccccc12)NC(=O)[C@H]1NC(=O)[C@H](CC(C)C)NC(=O)[C@H]([C@@H](C)O)NC(=O)[C@H](CC(=O)O)NC(=O)[C@H](CO)NC(=O)[C@H](CCCNC(=N)N)N(C)C(=O)c2ccccc2CSC1(C)C)C(N)=O` [compound 89] (HELM PEPTIDE1{[meR].S.D.T.L.[Pen].[O=C([C@H](Cc1cccc2ccccc12)N[*:1])[*:2]].E.[dK].[am]}|PEPTIDE2{[ac]}|CHEM1{[O=C(c1ccccc1C[*:2])[*:1]]}$PEPTIDE1,PEPTIDE2,9:R3-1:R2|PEPTIDE1,CHEM1,1:R1-1:R1|PEPTIDE1,CHEM1,6:R3-1:R2$$$V2.0), the IC50 was 100 to 1000 nM.
With `CC(C)C[C@@H]1NC(=O)[C@H]([C@@H](C)O)NC(=O)[C@H](CC(=O)O)NC(=O)[C@H](CO)NC(=O)[C@H](CCCNC(=N)N)N(C)C(=O)c2ccccc2CSC(C)(C)[C@@H](C(=O)N[C@@H](Cc2ccc3ccccc3c2)C(=O)N[C@H](CCC(=O)O)C(N)=O)NC1=O` [compound 114] (HELM PEPTIDE1{[meR].S.D.T.L.[Pen].[O=C([C@H](Cc1ccc2ccccc2c1)N[*:1])[*:2]].[dE].[am]}|CHEM1{[O=C(c1ccccc1C[*:2])[*:1]]}$PEPTIDE1,CHEM1,1:R1-1:R1|PEPTIDE1,CHEM1,6:R3-1:R2$$$V2.0) the IC50 was 25 to 100 nM.
In the case of `CC(C)C[C@@H]1NC(=O)[C@H]([C@@H](C)O)NC(=O)[C@H](CC(=O)O)NC(=O)[C@H](CO)NC(=O)[C@H](CCCNC(=N)N)N(C)C(=O)c2ccccc2CSC(C)(C)[C@@H](C(=O)N[C@@H](Cc2c[nH]c3ccccc23)C(=O)N[C@H](CCC(=O)O)C(=O)N[C@@H](CN)C(N)=O)NC1=O` [compound 94] (HELM PEPTIDE1{[meR].S.D.T.L.[Pen].W.[dE].[NC[C@H](N[*:1])C(=O)[*:2]].[am]}|CHEM1{[O=C(c1ccccc1C[*:2])[*:1]]}$PEPTIDE1,CHEM1,1:R1-1:R1|PEPTIDE1,CHEM1,6:R3-1:R2$$$V2.0), the IC50 is reported as 100 to 1000 nM.
With `CC(C)C[C@@H]1NC(=O)[C@H]([C@@H](C)O)NC(=O)[C@H](CC(=O)O)NC(=O)[C@H](CO)NC(=O)[C@H](CCCNC(=N)N)N(C)C(=O)c2ccccc2CSC(C)(C)[C@@H](C(=O)N[C@@H](Cc2c[nH]c3ccccc23)C(=O)N[C@H](CCC(=O)O)C(=O)N[C@H](CCC(=O)O)C(N)=O)NC1=O` [compound 108] (HELM PEPTIDE1{[meR].S.D.T.L.[Pen].W.[dE].[dE].[am]}|CHEM1{[O=C(c1ccccc1C[*:2])[*:1]]}$PEPTIDE1,CHEM1,1:R1-1:R1|PEPTIDE1,CHEM1,6:R3-1:R2$$$V2.0) the IC50 was 25 to 100 nM.
With `CC(C)C[C@@H]1NC(=O)[C@H]([C@@H](C)O)NC(=O)[C@H](CC(=O)O)NC(=O)[C@H](CO)NC(=O)[C@H](CCCNC(=N)N)N(C)C(=O)c2ccccc2CSC[C@@H](C(=O)N[C@@H](Cc2c[nH]c3ccccc23)C(=O)N[C@@H](CCC(=O)O)C(=O)N[C@H](CCCCN)C(N)=O)NC1=O` [compound 55] (HELM PEPTIDE1{[meR].S.D.T.L.C.W.E.[dK].[am]}|CHEM1{[O=C(c1ccccc1C[*:2])[*:1]]}$PEPTIDE1,CHEM1,1:R1-1:R1|PEPTIDE1,CHEM1,6:R3-1:R2$$$V2.0) the IC50 was 100 to 1000 nM.
In the case of `CC(C)C[C@@H]1NC(=O)[C@H]([C@@H](C)O)NC(=O)[C@H](CC(=O)O)NC(=O)[C@H](CO)NC(=O)[C@H](CCCNC(=N)N)N(C)C(=O)c2ccccc2CSC(C)(C)[C@@H](C(=O)N[C@@H](Cc2c[nH]c3ccccc23)C(=O)N[C@H](CCC(=O)O)C(=O)N[C@H](Cc2ccccc2)C(N)=O)NC1=O` [compound 107] (HELM PEPTIDE1{[meR].S.D.T.L.[Pen].W.[dE].[dF].[am]}|CHEM1{[O=C(c1ccccc1C[*:2])[*:1]]}$PEPTIDE1,CHEM1,1:R1-1:R1|PEPTIDE1,CHEM1,6:R3-1:R2$$$V2.0), the IC50 is reported as 25 to 100 nM.

Same assay, conditions: thioether peptide dimers, Table 7; read-out: Cell-Adhesion A4B7
In the case of `CC(C)C[C@@H]1NC(=O)[C@H]([C@@H](C)O)NC(=O)[C@H](CC(=O)O)NC(=O)[C@H](CO)NC(=O)[C@H](CCCNC(=N)N)N(C)C(=O)C(C)SC[C@@H](C(=O)N[C@@H](Cc2c[nH]c3ccccc23)C(=O)N[C@H](CCCCN)C(N)=O)NC1=O` (single isomer, unassigned) [compound 144], the IC50 is reported as > 1000 nM.
In the case of `CC(C)C[C@@H]1NC(=O)[C@H]([C@@H](C)O)NC(=O)[C@H](CC(=O)O)NC(=O)[C@H](CO)NC(=O)[C@H](CCCNC(=N)N)N(C)C(=O)c2ccccc2CSC[C@H](C(=O)N[C@@H](Cc2c[nH]c3ccccc23)C(=O)N[C@@H](CCC(=O)O)CC(=O)N[C@H](CCCCNC(=O)COCC(=O)NCCCC[C@@H](NC(=O)C[C@H](CCC(=O)O)NC(=O)[C@H](Cc2c[nH]c3ccccc23)NC(=O)[C@H]2CSCc3ccccc3C(=O)N(C)[C@@H](CCCNC(=N)N)C(=O)N[C@@H](CO)C(=O)N[C@@H](CC(=O)O)C(=O)N[C@@H]([C@@H](C)O)C(=O)N[C@@H](CC(C)C)C(=O)N2)C(N)=O)C(N)=O)NC1=O` [compound 156] (I: [NMeR]SDTL[dC]W[β3hE][dK]-NH2 / II: [NMeR]SDTL[dC]W[β3hE][dK]-NH2; linker I:9-II:9 via Diglycolyl; linker I:N-I:6, II:N-II:6 via X1), the IC50 is reported as 25 to 100 nM.
`CC(C)C[C@@H]1NC(=O)[C@H]([C@@H](C)O)NC(=O)[C@H](CC(=O)O)NC(=O)[C@H](CO)NC(=O)[C@H](CCCNC(=N)N)N(C)C(=O)c2ccccc2CSC(C)(C)[C@@H](C(=O)N[C@@H](Cc2cccc3ccccc23)C(=O)N[C@H](CCC(=O)O)C(=O)N[C@H](CCCCNC(=O)COCC(=O)NCCCC[C@@H](NC(=O)[C@@H](CCC(=O)O)NC(=O)[C@H](Cc2cccc3ccccc23)NC(=O)[C@H]2NC(=O)[C@H](CC(C)C)NC(=O)[C@H]([C@@H](C)O)NC(=O)[C@H](CC(=O)O)NC(=O)[C@H](CO)NC(=O)[C@H](CCCNC(=N)N)N(C)C(=O)c3ccccc3CSC2(C)C)C(N)=O)C(N)=O)NC1=O` [compound 158] (I: [NMeR]SDTL[Pen][1Nal][dE][dK]-NH2 / II: [NMeR]SDTL[Pen][1Nal][dE][dK]-NH2; linker I:9-II:9 via Diglycolyl; linker I:N-I:6, II:N-II:6 via X1) was tested, and the IC50 was < 25 nM.
In the case of `CC(C)C[C@@H]1NC(=O)[C@H]([C@@H](C)O)NC(=O)[C@H](CC(=O)O)NC(=O)[C@H](CO)NC(=O)[C@H](CCCNC(=N)N)N(C)C(=O)c2ccccc2CSC(C)(C)[C@@H](C(=O)N[C@@H](Cc2ccc(-c3ccccc3)cc2)C(=O)N[C@H](CCC(=O)O)C(=O)N[C@H](CCCCNC(=O)COCC(=O)NCCCC[C@@H](NC(=O)[C@@H](CCC(=O)O)NC(=O)[C@H](Cc2ccc(-c3ccccc3)cc2)NC(=O)[C@H]2NC(=O)[C@H](CC(C)C)NC(=O)[C@H]([C@@H](C)O)NC(=O)[C@H](CC(=O)O)NC(=O)[C@H](CO)NC(=O)[C@H](CCCNC(=N)N)N(C)C(=O)c3ccccc3CSC2(C)C)C(=O)O)C(=O)O)NC1=O` [compound 208] (I: [NMeR]SDTL[Pen][Bip][dE][dK]-OH / II: [NMeR]SDTL[Pen][Bip][dE][dK]-OH; linker I:9-II:9 via Diglycolyl; linker I:N-I:6, II:N-II:6 via X1), the IC50 is reported as < 25 nM.
